Key:
[1] = Stability constants for the formation of metal complexes with Mn2+ (potentiometry); format: physicochemical
Procedure: (§1) Potentiometric measurements were performed to determine the acid-base behaviour of the new family of compounds, yielding the overall protonation constants required for the subsequent study on the formation of metal complexes with Cu(II), Fe(II) and Mn(II).
The evaporation was in fact carried out in flasks, in contact with atmospheric oxygen.

[2] = Potentiometric determination of protonation constants; format: physicochemical; details: NaClO4 0.15 mol·dm^−3, 298.1±0.1 K; for logarithm of protonation constant, L + H = HL: standard deviation of last figure in brackets
Procedure: as §1
The numbers in brackets indicate the standard deviation of the last significant figure. ^a) The overall basicity constant is β=ΣKHjL

Compound	stability constant (log K), Mn + L = MnL [1]	stability constant, Mn + L + H = HMnL [1]	stability constant, MnL + H = HMnL [1]	Log β (overall basicity constant) [2]	logarithm of protonation constant, H2L + H = H3L [2]	logarithm of protonation constant, HL + H = H2L [2]	logarithm of protonation constant, L + H = HL [2]	stability constant, Mn + L + H2O = MnL(OH) + H^+ [1]	stability constant, MnL + OH = MnL(OH) [1]	logarithm of protonation constant, H3L + H = H4L [2]
c1cc2nc(c1)CNCCN(CCNCc1ccc3ccccc3n1)CCNC2 [Compound 2]	11.08(1)	16.23(6)	5.15(2)	24.66(2)	6.23(1)	8.40(1)	10.03(1)			
c1cc2nc(c1)CNCCN(CCNCc1ccnc3ccccc13)CCNC2 [Compound 1]	8.91(1)			27.00(1)	5.94(1)	8.31(1)	9.93(1)	−1.36(1)	3.45(1)	2.82(1)
